Structures are written as SMILES.

In the case of `Cc1nc(N2C[C@@H](C)N(Cc3ccc(C(F)(F)F)cc3)C2=O)sc1C(N)=O`, the melting point (commonly the temperature of the solid-liquid transition) was in the range of 110 to 112 °C.
As for `COc1cc(C(C)(C)C)c(OC)cc1I`, the figure is 80.5 to 82.5 °C; as for `COc1cc(Nc2nccc(-c3ccc(N(C)CCN(C)C)nc3)n2)cc(OC)c1OC`, 97 to 98 °C.
With `Nc1cnc(Cl)c(Cl)c1` the figure was 110 to 113 °C; with `O=C(O)Cc1ccc(-n2cc(Br)cn2)cc1`, 187 °C; with `Cc1ccc2c([N+](=O)[O-])c(Cl)ccc2n1`, 123 to 124 °C.
As for `CCOC(=O)CC(NC(=O)C1=C(C(=O)Nc2ccc(Cl)cc2F)CCCC1)C(=O)OCC` (stereo not given), the figure is 109 to 110 °C; as for `COC(=O)c1ncccc1N`, 139 to 146 °C; as for `O=C(O)Cc1ccc(OCc2ccccc2)c(Cl)c1`, 121 to 123 °C.
`CC(O)=C1C(=O)CC(c2ccccc2C)CC1=O` (stereo not given): the melting point was 78 to 81 °C.
With `C=Cc1ccc2nnn(OS(C)(=O)=O)c2c1` the figure was 129 to 130 °C.
`CCOC(=O)CNC(=O)CCC(=O)OC`: the melting point lay in the range of 61 to 62 °C.
With `Cc1ccccc1N=C=Nc1ccccc1C` the figure was 3.5 to 4.5 °C; with `COc1cc(O)c(C=O)cc1C(C)(C)C`, 75 to 78 °C.
With `CC(C)(C)OC(=O)Nc1cn(-c2cccnc2)nc1Br` the figure was 109 to 112 °C.
As for `CC(C)n1nc(C(=O)Cl)c2ccccc21`, the melting point fell in the range of 63 to 64 °C.
As for `CCCC(=O)c1cnc2c(OCCOCCO)cccc2c1Nc1ccc(F)cc1C`, the figure is 144 to 145 °C; as for `O=C(c1cc2ccc3[nH]ccc3c2[nH]1)N1CCC(Cc2ccccc2)CC1`, 186 to 188 °C; as for `Oc1ccc2nc(-c3ccccc3)cc(Cl)c2c1`, 180 to 181 °C.
With `COc1ccc(C(O)C(=S)N(C)C)cc1` (stereo not given) the figure was 101 °C; with `CCCCc1nc2cccc(C(=O)OC)c2n1Cc1ccc(-c2ccccc2C#N)nc1`, 155 to 156 °C; with `COC(=O)[C@@H](N)CCc1nnnn1CC(=O)N[C@H](C)C(=O)OC`, 87 to 89 °C.
Regarding `COc1cc2c(=O)n(CCN3CCCC3)c3c4cc5c(cc4nnc3c2cc1OC)OCO5`, the melting point amounted to 229 °C.
With `COc1cccc(OC)c1C(=O)Nc1nnc(-c2cccc(O)c2)s1` the figure was 243 to 245 °C; with `CCSc1nc2c(N)nc(-c3ccncc3)nc2[nH]1`, 168 to 170 °C.
As for `COc1ccc(-n2nc(C(C)C)cc2-c2ccc(OCCNC(N)=O)cc2)cn1`, the figure is 106 to 107 °C; as for `CN(C(=O)N1CCN2C(=O)OC(c3ccccc3)(c3ccccc3)C2C1)c1ccccc1` (stereo not given), 146 to 147 °C; as for `CCn1c(=O)c2c(nc(/C=C/c3ccc(OCCCCBr)cc3)n2C)n(CC)c1=O`, 175 to 176 °C.
With `O=C(CNCc1ccc(OCc2ccccc2)cc1)NCCCOc1ccccc1` the figure was 55 to 56 °C; with `Cc1ccc(NC(=O)c2ccc(N)c([N+](=O)[O-])c2)cc1C`, 192 to 195 °C; with `COc1cc(NCC(O)CO)c([N+](=O)[O-])cc1O` (stereo not given), 180 °C.
`Cc1cc(-c2ccc3nnn(Cc4ccc5ncccc5c4)c3n2)ccc1C(N)=O` had a melting point of 235 to 237 °C.
As for `Nc1c(NCCCOc2cccc(CO)c2)c(=O)c1=O`, the figure is 207 to 212 °C; as for `O=C(O)c1cccc(Oc2ccc(C(F)(F)F)c(Cl)c2)c1`, 90 to 91 °C; as for `CCN(CC)c1ccc(C=O)c(OCCN2CCCCC2)c1`, 70 to 72 °C.
With `COc1ccc(S(=O)(=O)N(C)c2ccc(Cl)cc2C(O)c2ccccc2Cl)cc1OC` (stereo not given) the figure was 173 °C.
With `CCOC(=O)C(C)c1cnc(Cl)c2cc(OC)ccc12` (stereo not given) the figure was 126 to 128 °C.
As to `O=C(O)c1ccc(OC(=O)c2ccc(O)c(C34CC5CC(CC(C5)C3)C4)c2)cc1`, the melting point was 269 to 271 °C.
As for `CCCCCCCCCCCCCCCCCC(=O)NCCOC(=O)CCc1cc(C(C)(C)C)c(O)c(C(C)(C)C)c1`, the figure is 52 to 55 °C; as for `O=[N+]([O-])c1cnn2c(-c3ccncc3)ccnc12`, 241 to 244 °C.
As for `C[C@H](NC(=O)COCCN1C(=O)c2ccccc2C1=O)C(=O)N[C@H](CCC(=O)OCc1ccccc1)C(N)=O`, the figure is 205 to 206 °C; as for `CCCCc1nc(CCCC)n(Cc2ccc(-c3ccccc3-c3nnn[nH]3)cn2)n1`, 136 to 138 °C.
In turn, `CCC(=O)NC/C=C1\CCc2ncc3c(c21)CCO3` displayed a melting point of 163 to 164 °C.
Consider `O=C(O)Cc1cc(C=Cc2ccc(C(=O)O)cc2)ccc1O`, for which the melting point is over 260 °C.
As for `COc1ccc2[nH]c(SCc3ncc(C)c(N4CCCC4)c3Cl)nc2c1`, the figure is 152 to 158 °C; as for `CC(C)(C)C(=O)OCCOCn1cnc2c(=O)[nH]c(N)nc21`, 245 to 246 °C; as for `CC1(C)C(=O)N(Cc2ccccc2Cl)OC1Nc1ccccc1` (stereo not given), 99 to 101 °C.
As for `CC(=O)N1CCN(C(C)=O)C1=Nc1ccc(Cl)cc1Cl`, the figure is 113 to 115 °C; as for `COc1ccc(-c2csc(Nc3ccc(C(F)(F)F)cn3)n2)cc1OC`, 244 to 247 °C.
Compound `COc1cnc(N2CCN(c3ccc(-n4c(C)nn(CC(=O)c5ccc(Cl)cc5)c4=O)cc3)CC2)nc1` displayed a melting point of 220 °C.
As for `O=C(O)c1cc(-c2ccc3c(c2)CCO3)nn(Cc2ccc(Cl)cc2)c1=O`, the figure is 200 to 210 °C.
With `Cc1c(NC(=O)c2ccc(OCc3ccccc3)cc2)ccc2cc(CN3CCCCC3)cnc12` the figure was 186 to 187 °C; with `O=[N+]([O-])c1cnc(Oc2cnc3ccccc3c2)c(Cl)c1`, 123 to 127 °C.
Compound `Cc1c(Cl)cccc1C(=N)NO` returned a melting point of 119 to 121 °C.
With `CCS(=O)(=O)N1CCSc2ccccc2C1` the figure was 78 to 80 °C; with `COc1ccc(-c2ocnc2-c2cc(OC)c([N+](=O)[O-])c(OC)c2)cc1O`, 186 to 188 °C.
With `CC(C)(C)OC(=O)NC1CCN(c2c(F)cc3c(=O)c(C(=O)O)cn(C4CC4)c3c2F)C1` (stereo not given) the figure was 239 to 240 °C; with `COC(=O)[C@H](Cc1ccccc1)NC(=O)[C@H](Cc1ccccc1)NC(=S)Cc1ccc(C)cc1`, 115 to 117 °C; with `CC(C)NC(=O)NC(C)(C)C(=O)NCCO[N+](=O)[O-]`, 120 to 122 °C.
With `CCC(=O)N=C(NC(=O)OC)Nc1cc(Oc2ccccc2)ccc1NC(C)=O` the figure was 161 to 163 °C.
In the case of `O=S1NC(Cc2coc3ccccc23)=NO1` (stereo not given), the melting point was 138 to 140 °C.
For `CNC(=S)Nc1cc(OC)c(-c2ccc(C[C@H](NC(=O)c3c(Cl)cccc3Cl)C(=O)O)cc2)c(OC)c1`, the melting point lay within 197 to 198 °C.
Consider `Cc1ccccc1N1CCc2c(N)nc3c(C)cccc3c21`, for which the melting point is 173 to 174 °C.
With `O=[N+]([O-])c1ccc(NCc2ccccc2)c(F)c1` the figure was 97.5 to 99 °C; with `Cc1oc(-c2ccccc2)nc1COc1ccc(C(=O)O)cc1`, 190 to 191 °C; with `Cc1ccc(-n2nc(C(C)(C)C)cc2NC(=O)NCc2ccccc2Oc2cc(N3CCOCC3)ncn2)cc1`, 128 °C.
As for `Cn1ccc2c(c(=NO)c1=O)C=CCC2`, the figure is 225 to 226 °C; as for `CCn1nc(-c2cnc(N)nc2-c2ccccc2)ccc1=O`, 255 to 256 °C; as for `COCCCNC(=O)NC(=O)C(C#N)=NO`, 126 to 127 °C.
With `C#Cc1ccnc(-c2ccc(-c3ccccc3C#C)c([N+](=O)[O-])c2)c1` the figure was 144 to 146 °C.
As for `O=c1[nH]nc(COc2ccccc2)s1`, the melting point was 104 to 105 °C.
As for `CN(CCO)c1nc(N)nc(-c2cc(Cl)ccc2Cl)n1`, the figure is 153 to 155 °C.
`CCOC(=O)Cc1csc(Nc2ccc(Cl)c(C(F)(F)F)c2)n1` returned a melting point of 148 to 150 °C.
As for `COc1ccc(/C=C(\C)c2ccc3c(c2)C(C)(C)CCC3(C)C)cc1`, the figure is 108 to 110 °C; as for `CNC(=O)CC1CN=C(c2cc3cc(Oc4ccc(S(C)(=O)=O)cn4)cc(OC(C)C)c3[nH]2)S1` (stereo not given), 190 to 192 °C; as for `CNCC(O)C1=CSC2C=CC=CC12` (stereo not given), 98 to 102 °C.
With `CS(=O)(=O)c1ccc(-c2nn3c4c(oc3c2-c2ccc(F)cc2)CCCC4)cc1` the figure was 183 to 184 °C; with `CCOC(=O)Cn1c(=O)c(=O)[nH]c2cc(C(F)(F)F)c(-n3ccc(C=NOCc4ccccc4)c3)cc21`, 142 to 147 °C; with `COc1cc(C(C)C)c(Oc2cnc(N)nc2N)cc1I`, 204 to 206 °C.
As for `Nc1c(-c2cc(Cl)ccc2O)c2c(Cl)c(Cl)ccc2[nH]c1=O`, the figure is 263 to 265 °C; as for `Cc1oc(-c2ccc(Cl)cc2)cc1C(=O)NCc1ccc2cc(O)ccc2c1`, 202 to 204 °C; as for `COCCN1CCC(O)(c2cc(F)cc(F)c2)C1` (single isomer, unassigned; (-)), 130 to 131 °C.
Regarding `Cc1cc(C)cc(SCc2c(C(C)C)nc(C(C)C)c(CO)c2-c2ccc(F)cc2)c1`, the melting point is 109 to 110 °C.
With `CCCOc1ncc(C(C)=O)cc1-c1nc2c(CC)n(C3CN(C(C)C)C3)nc2c(=O)[nH]1` the figure was 163 to 164 °C.
As for `O=C1CCCc2cc(O)ccc21`, the figure is 153 to 155 °C.
With `CC(C)Cn1c(=O)n(C)c(=O)c2c(SC(C)C)c(C(=O)c3nc4ccccc4n3C)sc21` the figure was 166 to 169 °C; with `O=C(O)CCc1cc2ccc(C(F)(F)F)cc2n1S(=O)(=O)c1ccccc1`, 168 to 169 °C.
The compound `CN1CCN(c2ccc(S(=O)(=O)c3ccc(F)cc3)c(N)c2)CC1` had a melting point of 85 to 89 °C.
With `O=c1cc(-c2ccc(O)c(-c3cccs3)c2)oc2ncccc12` the figure was 274 to 275 °C.
As for `CS(=O)(=O)c1ccc(-c2ccc(N=[N+]=[N-])nc2-c2ccc(F)cc2)cc1`, the figure is 229 °C.

Values taken from a melting point compilation (Tetko et al.; mined from patent text by program, amines drawn as free bases though some values may be those of a salt).
